System: circulating lymphocytes
Test: Blood Lymphocyte Reduction Assay (BLR) in Rodents
Assay type: in vivo
Conditions: Lewis rats, oral, vs vehicle group
Protocol: Lewis rats were dosed orally with test article (as a solution or suspension in the vehicle) or vehicle alone (polyethylene glycol 300, “PEG300”). Blood was drawn at 4 hr and 24 h by retro-orbital bleeding. Blood lymphocyte counts were determined on an ADVIA 120 Hematology Analyzer (Siemens Healthcare Diagnostics). The results were measured as a reduction in the percentage of circulating lymphocytes as compared to the vehicle treated group at the 4 hr and 24 hr measurement. The results represent the average results of all animals within each treatment group (n=3-4).
The following examples were tested in the Blood Lymphocyte Reduction assay (BLR) described hereinabove and the results are shown in Table C for rats.

Q: For `O=C(O)C[C@@H]1CC(c2ccc(-c3noc(CCC4(c5ccccc5)CCCCC4)n3)cc2)=NO1` [Example 133, (S)-(3-(4-(5-(2-(1-phenylcyclohexyl)ethyl)-1,2,4-oxadiazol-3-yl)phenyl)-4,5-dihydro-5-isoxazolyl)acetic acid], which “% REDUCTION IN LYMPHOCYTES AT 4 HR.” value (20.0 mg/kg) is on record?
A: 84%

Q: `O=C(O)C1CN(Cc2ccc(-c3noc(/C=C/C4(c5cccc(Cl)c5)CCCCC4)n3)cc2)C1` [Example 90, 1-(4-(5-((E)-2-(1-(3-chlorophenyl)cyclohexyl)vinyl)-1,2,4-oxadiazol-3-yl)benzyl)-3-azetidinecarboxylic acid] was tested. Which “% REDUCTION IN LYMPHOCYTES AT 4 HR.” value (5.0 mg/kg) did it give?
A: 85%

Q: Which “% REDUCTION IN LYMPHOCYTES AT 4 HR.” value (1.0 mg/kg) does the source give for `O=C(O)C1CN(Cc2ccc(-c3noc(CCC4(c5ccccc5)CCCCC4)n3)cc2)C1` [Example 1, 1-(4-(5-(2-(1-phenylcyclohexyl)ethyl)-1,2,4-oxadiazol-3-yl)benzyl)azetidine-3-carboxylic acid] here?
A: 75%

Q: How did the “% REDUCTION IN LYMPHOCYTES AT 4 HR.” value (10.0 mg/kg) turn out when `Cc1cc(-c2noc(/C(F)=C/C3(c4ccc(Cl)cc4)CC3)n2)cc(C)c1OC[C@@H](O)CO` [Example 48, (2S)-3-(4-(5-((Z)-2-(1-(4-chlorophenyl)cyclopropyl)-1-fluorovinyl)-1,2,4-oxadiazol-3-yl)-2,6-dimethylphenoxy)-1,2-propanediol] was run?
A: 83%

From US8822510B2, “Substituted 3-phenyl-1,2,4-Oxadiazole compounds” (Bristol-Myers Squibb Company, priority 2010, dated 2014)
